Laboratory results published in patent US7417027B2, “Linear and cyclic melanocortin receptor-specific peptides” (Palatin Technologies, Inc., priority 2001, dated 2008).

Assays:
hMC3-R = molecular target: T1, hMC3-R (Homo sapiens, UniProt P41968); assay: Competitive inhibition binding assay, 125I-NDP-alpha-MSH, hMC3-R membranes
T1 construct: expressed in transfected cells

[1] = Food intake and body weight change in male Sprague-Dawley rats; format: in vivo, rat; settings: for average daily body weight gain / average daily body weight lost: saline animals gained 4 g
Method: Food intake and body weight change was evaluated for selected peptides. Male Sprague-Dawley rats weighing ˜300 g at the beginning of the experiment were kept on a 12 hour on/of light cycle. Lights out was adjusted to 12:00 p.m. to allow for dosing just prior to the start of their dark period. Rats (12/group) were fed powdered chow and water ad libitum. For 1 week before treatment, 24-hour food intake and body weight change was recorded to assess a baseline for the group during vehicle treatment. The rats were dosed ICV, IV, SC or IP on day 0 and food intake and body weight measured daily for 1 week. Animals were dosed once per week for up to 6 weeks and their food intake and daily weight changed compared to their baseline. FIGS. 3, 4 and 5 illustrate results of different peptides at different doses and by varying routes of administration.

[2] = Conditioned taste aversion in rats; format: in vivo, rat; settings: IP 1500 μg/kg, saccharin water intake day 1 vs day 3, FIG. 6
Method: Conditioned taste aversion was evaluated in rats using selected peptides. Male Sprague-Dawley rats weighing ˜300 g were kept on a 12 hour on/of light cycle. Lights out was adjusted to 12:00 p.m. with food ad libitum. Animals were trained to be accustomed to 30 minutes of access to water per day. On day 1 of the experiment, rats were given 30 minutes of access to water containing 0.15% saccharin immediately prior to being dosed ICV, IV or IP with compound. On day 2 they were given plain water for the appointed time. On day 3 the rats were given saccharin-containing water again. The amount of fluid these animals consumed on day 1 and day 3 was compared. Reduced intake on day 3 indicates a conditioned taste aversion due to illness induced by drug treatment on day 1.

[3] = Penile erection induction in male rats; format: in vivo, rat; settings: male Sprague-Dawley rats; iv, varying quantities; 30 minutes observation; FIG. 2
Method: The ability of compounds to induce penile erection (PE) in male rats was evaluated with selected peptides. Male Sprague-Dawley rats weighing 200-250 g were kept on a 12 hour on/off light cycle with food and water ad libitum. All behavioral studies were performed between 10 a.m. and 5 p.m. Groups of 4-8 rats were treated with peptides at a variety of doses via intravenous (IV), subcutaneous (SC), intracerebroventricular (ICV), intraperitoneal (IP) injection or administered intranasally (IN) using a micropipetor to deliver 25 μL of solution into one nostril. Immediately after treatment, rats were placed into individual polystyrene cages (27 cm long, 16 cm wide, and 25 cm high) for behavioral observation.

MC4-R [4] = molecular target: T2, MC4-R (Homo sapiens, UniProt P32245); assay: Competitive inhibition binding assay, 125I-NDP-alpha-MSH, hMC4-R membranes; design: expressed in transfected cells
T2 sequence (P32245 whole entry): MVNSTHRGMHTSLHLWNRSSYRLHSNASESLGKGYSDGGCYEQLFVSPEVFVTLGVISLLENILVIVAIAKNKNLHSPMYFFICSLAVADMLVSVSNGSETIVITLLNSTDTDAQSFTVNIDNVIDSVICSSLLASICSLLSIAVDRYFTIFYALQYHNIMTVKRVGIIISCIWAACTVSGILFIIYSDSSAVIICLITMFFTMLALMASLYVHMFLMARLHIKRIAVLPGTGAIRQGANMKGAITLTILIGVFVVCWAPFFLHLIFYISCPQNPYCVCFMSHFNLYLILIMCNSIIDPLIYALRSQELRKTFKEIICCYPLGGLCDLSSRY

MC4-R [5] = molecular target: T2, MC4-R; assay: Functional evaluation: intracellular cAMP accumulation in HEK-293 cells expressing MC4-R (agonist/antagonist status); format: cell-based; design: expressed in transfected cells; host or cells: HEK-293; settings: with or without alpha-MSH, 1 hour at 37° C
Method: The Ki (nM) of certain peptides were determined, as was the agonist/antagonist status with respect to MC4-R. Functional evaluation of peptides at MC4-R was performed by measuring the accumulation of intracellular cAMP in HEK-293 cells expressing MC4-R. Antagonistic activity was determined by measuring the inhibition of α-MSH-induced cAMP levels following exposure to the compounds. Cells, suspended in Earle's Balanced Salt Solution containing 10 mM HEPES, pH 7.5, 5 mM MgCl2, 1 mM glutamine, 0.1% albumin and 0.6 mM 3-isobutyl-1-methyl-xanthine, a phosphodiesterase inhibitor, were plated in 96 well plates at a density of 0.5×10^5 cells per well. Cells were incubated with the test peptides in the presence or absence of α-MSH for 1 hour at 37° C. cAMP levels were measured by EIA (Amersham) in the cell lysates. Data analysis and EC50 values were determined using nonlinear regression analysis with Prism Graph-Pad software.

MC1-R = MC1-R (Mus musculus, UniProt Q01727); assay: Competitive inhibition binding assay, 125I-NDP-alpha-MSH, B-16 mouse melanoma cell membranes; settings: B-16 cells; read-out: Ki MC-1 B-16
Chain of MC1-R (Q01727 whole entry): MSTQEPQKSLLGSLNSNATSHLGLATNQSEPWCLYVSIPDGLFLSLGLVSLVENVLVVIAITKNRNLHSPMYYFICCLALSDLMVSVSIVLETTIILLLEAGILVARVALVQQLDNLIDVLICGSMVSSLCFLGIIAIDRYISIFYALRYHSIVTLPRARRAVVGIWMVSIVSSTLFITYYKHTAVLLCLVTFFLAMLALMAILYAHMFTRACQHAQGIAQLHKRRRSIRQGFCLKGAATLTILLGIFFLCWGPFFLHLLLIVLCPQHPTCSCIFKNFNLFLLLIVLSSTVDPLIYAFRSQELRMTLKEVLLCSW

hMC5-R = molecular target: T3, hMC5-R (Homo sapiens, UniProt P33032); assay: Competitive inhibition binding assay, 125I-NDP-alpha-MSH, hMC5-R membranes
T3 construct: expressed in transfected cells
T3 sequence (P33032 whole entry): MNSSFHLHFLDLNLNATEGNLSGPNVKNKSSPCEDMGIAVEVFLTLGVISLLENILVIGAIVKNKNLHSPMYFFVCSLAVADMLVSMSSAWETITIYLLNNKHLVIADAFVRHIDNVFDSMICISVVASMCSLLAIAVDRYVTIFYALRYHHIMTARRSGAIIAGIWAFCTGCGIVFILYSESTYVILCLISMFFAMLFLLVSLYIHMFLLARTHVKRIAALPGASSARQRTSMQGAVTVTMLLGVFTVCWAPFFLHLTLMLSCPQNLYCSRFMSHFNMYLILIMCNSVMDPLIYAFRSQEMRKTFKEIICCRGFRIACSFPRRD

T1 sequence (P41968 whole entry): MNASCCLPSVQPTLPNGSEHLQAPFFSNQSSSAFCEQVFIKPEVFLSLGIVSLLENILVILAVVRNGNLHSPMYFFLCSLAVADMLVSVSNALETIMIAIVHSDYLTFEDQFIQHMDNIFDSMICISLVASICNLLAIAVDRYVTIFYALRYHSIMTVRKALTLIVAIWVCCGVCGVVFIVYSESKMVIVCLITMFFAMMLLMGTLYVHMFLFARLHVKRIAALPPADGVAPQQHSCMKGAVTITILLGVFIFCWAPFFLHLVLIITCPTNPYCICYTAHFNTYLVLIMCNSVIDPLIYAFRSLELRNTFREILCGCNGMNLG

With N=C(N)NCCCC(NC(=O)C(Cc1ccc(Cl)cc1)NC(=O)C(COCc1ccccc1)NC(=O)CCCCCCN)C(=O)NC(Cc1c[nH]c2ccccc12)C(N)=O [7′-amino-heptanoyl-Ser(Bzl)-D-Phe(4-Cl)-Arg-Trp-NH2] the “percent inhibition of 125I-NDP-alpha-MSH binding, MC3-R” value (hMC3-R; hMC3-R membranes, 0.4 nM 125I-NDP-alpha-MSH, mean of triplicate, peptide concentration not given) was 94%, the Ki (hMC3-R; membranes, read-out: Ki MC-3 Mem) was 25 nM and the “average daily body weight gain” value ([1]; ICV 0.1 nmol) was 3 g. The “average daily body weight lost” value ([1]; ICV 0.5 nmol) was 1 g, the “average daily body weight lost” value ([1]; ICV 1.0 nmol) was 3 g and the “time by which animals returned to baseline after dosing” value ([1]; ICV dosing, FIG. 4) was ≤ 48 h. For the same molecule, the “average daily body weight gain” value ([1]; IP 750 μg/kg) was 4 g, the “average daily body weight gain” value ([1]; IP 1500 μg/kg) was 2 g and the “average daily body weight lost” value ([1]; IP 3000 μg/kg) was 1 g. The “conditioned taste aversion response” value [2] was “no conditioned taste aversion response”, the “conditioned taste aversion response” value ([2]; listed as 7′-amino-heptanoyl-Ser(Bzl)-D-Phe(4′-Cl)-Arg-Trp-NH2) was “did not induce a conditioned taste aversion response” and the penile erection induction [3] was “induced erections”. The “percent inhibition of 125I-NDP-alpha-MSH binding, MC4-R” value (MC4-R [4]; hMC4-R membranes, 0.4 nM 125I-NDP-alpha-MSH, mean of triplicate, peptide concentration not given) was 99%, the Ki (MC4-R [4]; membranes, read-out: Ki MC-4 Mem) was 1 nM and the “HEK-293 (MC4-R) cells Classification” value (MC4-R [5]) was “Agonist”. The Ki (MC1-R) was 795 nM, the “percent inhibition of 125I-NDP-alpha-MSH binding, MC5-R” value (hMC5-R; hMC5-R membranes, 0.4 nM 125I-NDP-alpha-MSH, mean of triplicate, peptide concentration not given) was 73% and the Ki (hMC5-R; membranes, read-out: Ki MC-5 Mem) was 175 nM.
